Measurements from the SangsterLogP compilation.

assay: method code SF, from Furst, W.; Becher, M. (1990). Homologues of 2-acetamido-4-nitropropoxybenzene (Falimint). I. Preparation, physicochemical and organoleptic properties. Pharmazie, 45(12)934-935.

| Structure (SMILES) | logP |
| --- | --- |
| COc1ccc([N+](=O)[O-])cc1NC(C)=O | 1.6 |
| CCCCCCCCCCCC(=O)Nc1cc([N+](=O)[O-])ccc1OCCC | 3.48 |
| CCCOc1ccc([N+](=O)[O-])cc1NC(=O)CCC | 2.4 |
| CCOc1ccc([N+](=O)[O-])cc1NC(=O)CC | 1.85 |
| CCCCCC(=O)Nc1cc([N+](=O)[O-])ccc1OCCC | 2.78 |
| CCCCCCCCCC(=O)Nc1cc([N+](=O)[O-])ccc1OCCC | 3.3 |
| CCCOc1ccc([N+](=O)[O-])cc1NC(C)=O | 1.6 |
| CCCCCCCCCCCCOc1ccc([N+](=O)[O-])cc1NC(C)=O | 3.65 |
| CCCCCCCC(=O)Nc1cc([N+](=O)[O-])ccc1OCCC | 3.14 |
| CCCCOc1ccc([N+](=O)[O-])cc1NC(C)=O | 2.26 |
| CCCCCCCCOc1ccc([N+](=O)[O-])cc1NC(C)=O | 3.18 |
| CCCOc1ccc([N+](=O)[O-])cc1NC(=O)CC | 1.93 |
| CCCCCOc1ccc([N+](=O)[O-])cc1NC(C)=O | 2.67 |
| CCCCCCOc1ccc([N+](=O)[O-])cc1NC(C)=O | 2.91 |
